Test results as given in US10087466B2 (priority 2016, dated 2018).
Marks after values point to notes of the source that are not given here.

Tests used:
Format in all cases: in vivo
[1] = system: Serum inflammatory cytokine TNF-α, IL-2 and IL-6; assay: Serum inflammatory cytokines (TNF-α, IL-2, IL-6) by ELISA; conditions: pig serum; diet + 0.3 mg/kg Na2SeO3 or 0.14 mg/kg nanostructure; mean±SD
weaned pigs = assay: Pig growth measurement (body weight, feed intake, feed/gain) in weaned pigs; conditions: mean±SD
[2] = system: pig antioxidative function; assay: Serum antioxidative function measurement (T-AOC, GPx, SOD, MDA) with kits; conditions: diet + 0.3 mg/kg Na2SeO3 or 0.14 mg/kg nanostructure, mean±SD
Serum IgG and IgM = Serum IgG and IgM by turbidimetric inhibition immuno assay; conditions: pig serum; diet + 0.3 mg/kg Na2SeO3 or 0.14 mg/kg nanostructure; mean±SD
[3] = day 28 to 67, diet + 0.3 mg/kg Na2SeO3 or 0.14 mg/kg nanostructure

## O=[Se](O)O [sodium selenite]
[1]
  IL-2: 108.19 ± 10.26^ab ng/L
  IL-6: 571.10 ± 38.62^ab ng/L
  TNF-α: 41.86 ± 4.50^ab ng/L
Weaned pigs; 67-day-old, basic diet + 0.3 mg/kg Na2SeO3 (group 1) or 0.14 mg/kg biogenic elemental selenium nanostructure (group 2)
  Final weight: 24.17 ± 0.76^a kg
Weaned pigs; [3]
  Average daily feed intake: 654.17 ± 37.64 g
  Average daily gain: 411.54 ± 20.63^a g
  Feed/gain ratio: 1.59 ± 0.01^b
[2]
  GPx: 238.56 ± 13.07^a U/mL
  MDA: 3.31 ± 0.10^a nmol/mL
  SOD: 147.94 ± 5.89^a U/mL
  T-AOC: 2.51 ± 0.16^a U/mL
Serum IgG and IgM
  IgG: 2.66 ± 0.23^ab g/L
  IgM: 0.71 ± 0.07^a g/L
